Results published in patent publication US20030134851A1, “Methods and compositions for providing glutamine” (priority 2001, published 2003).
Entries after “also recorded” stand apart in the source; their conditions may differ. Each block holds one compound with its values, some of them ahead of it.

What was measured:
[1] = Aqueous stability at various pH values, ambient temperature (HPLC); assay type: physicochemical; conditions: for GLN (glutamine) in glutamine solution / PGA (pyroglutamic acid) in glutamine solution: pH 6.0, 1 mg/mL
Protocol: HPLC analysis was conducted using an Inertsil® C8, 5 micrometer, 4.6×250 mm column (obtained from Keystone Scientific, Inc., Bellefonte, Pa.). The mobile phase was water adjusted to pH 2.2 with HCl (isocratic at 1 mL/minute). The injection volume was 10 microliters. Ultraviolet detection was at 214 nm. In order to test the stability of N-acetyl-L-glutamine in aqueous solutions at various pH values, the following procedure was followed. Aqueous solutions of N-acetyl-L-glutamine were prepared in 1 pH unit increments from pH 2.0 to 8.0. The pH of the solutions was adjusted with either hydrochloric acid or sodium hydroxide, as needed, just prior to final dilution (final concentration=1 mg/mL or 5.3 mM N-acetyl-L-glutamine). A single solution of glutamine was not pH adjusted (measured pH=6.0) and was prepared at 1 mg/mL or 6.8 mM glutamine. All solutions were sterile-filtered (Millipore Millex®-GS, 25 mm, 0.22 micrometer pore size, sterile) into autosampler vials and capped for storage at ambient temperature (17-25° C.). N-acetyl-L-glutamine samples were assessed by HPLC at various time points, from 1 to 180 days. The glutamine sample was assessed by HPLC at similar time points, from 1 to 45 days.

[2] = administered intravenously, humans; cited from earlier work
[3] = test system: intestinal damage caused by protein-energy malnutrition; test: Intestinal damage caused by protein-energy malnutrition in pigs; assay type: in vivo, pig; conditions: for Ileal mucosa histology (electron transmission microscopy) / Jejunal mucosa histology (electron transmission microscopy): malnourished pigs fed ENSURE PLUS plus supplement; for Alkaline phosphatase (AP) activity in jejunum: versus caseinate supplement; for T helper (CD4+) subpopulation of intra-epithelial lymphocytes in jejunum: versus control group
Protocol: A study was conducted to evaluate the potential effects of N-acetyl-L-glutamine versus free glutamine on intestinal damage caused by protein-energy malnutrition in pigs. In this study, 5-week-old domestic pigs, were provided by a certified farm. The pigs were randomly assigned to one of two groups. In one group 3 pigs were freely fed with ENSURE PLUS® (Ross Products Division, Abbott Laboratories) for 30 days. In the second group, 9 pigs were also fed with ENSURE PLUS®, but at only 20% of the daily intake of the first group. This second group was divided into 3 subgroups with […] each to receive a daily supplement of either calcium caseinate, glutamine or N-acetyl-L-glutamine. Daily average energy and protein supplied to the control group ranged from 3300 kcal, 138 g protein at the beginning of the study to 4500 kcal, 187 g protein at the end of the study. In the second group, supplements of caseinate, glutamine and N-acetyl-L-glutamine provided an additional 1.32 grams nitrogen equivalents per day (basically, 6.89 grams L-glutamine, or 8.87 grams N-acetyl-L-glutamine or 8.42 grams caseinate protein are supplemented per day). After 30 days, all pigs were deprived of food for 16 hours. The animals were then weighed, sedated, anesthetized and sacrificed through terminal bleeding by jugular puncture.
The entire small intestine was quickly removed. The 60 cm segment of the small intestine from the ligament of Treitz was considered proximal jejunum. A 5 cm long segment from the ligament of Treitz was selected for histological analysis of jejunum. The 60 cm length closest to the ileo-cecal valve was considered the distal ileum. A 5 cm segment from the ileo-cecal valve was selected for histological analysis of the ileum. The intestine segments were rinsed thoroughly with ice-cold saline solution, opened length-wise and blotted dry. The mucosa was scraped off using a glass slide onto a cold Petri dish, weighed, immediately frozen under liquid nitrogen and stored at −80° C. until biochemical analysis.
Jejunal and ileal mucosa were homogenized in 10 mM phosphate buffer (pH 7.4) using a mechanical Potter homogenizer, for protein and DNA assays. For the determination of the enzymatic markers of injury, functionality and antioxidant defense system, the mucosal homogenates were centrifuged at 3000 g for 10 min. and the resulting supernatants were used for enzymatic assays. For the determination of total glutathione, the mucosa was homogenized in 5% trichloroacetic acid and centrifuged at 8000 g for 5 min.
Biochemical analysis and immunological analysis were performed on the specimens. Concentrations of intestinal mucosa protein and DNA were determined using the Bradford method (Analytical Biochemistry, Volume 72, pages 248-254, 1976) and the method of Labarca and Paigen (Analytical Biochemistry, Volume 102 (2), pages 344-352, 1980), respectively. The degree of intestinal damage caused by malnutrition was evaluated by measuring alkaline phosphatase activity using the method of Goldstein (R. Goldstein, T. Klein, S. Freier and J. Menczel. American Journal of Clinical Nutrition 24: 1224-1231, 1970).
Glutathione reductase activity was evaluated by the method of Carlberg and Mannervik (I. Carlberg and B. Mannervik, Methods in Enzymology, Volume 113, pp 484-490, 1985). Glutathione transferase activity was measured using the method of Habig, et al. (W. H. Habig, M. J. Pabst and W. B. Jakoby, Journal of Biological Chemistry. […]). Glutathione peroxidase activity was assayed by the method of Flohe and Gunzler (L. Flohe and W. A. Gunzler, Methods in Enzymology, Volume 105, pp 114-121, 1984), and the non-protein sulfhydryl content (reported as reduced glutathione equivalents) was determined by the method of Anderson (M. E. Anderson, Methods in Enzymology, 133: 548-554, 1985). […]

[4] = pH 3.0, ambient temperature, 6 months

SMILES: CC(=O)N[C@@H](CCC(N)=O)C(=O)O [N-acetyl-L-glutamine]
- Degradation of N-acetyl-L-glutamine ([1]; 1 mg/mL, all pH values (2.0 to 8.0), ambient temperature, through 7 days): no degradation
- N-acetyl-L-glutamine remaining ([1]; pH 2.0, ambient temperature, 6 months): 55.7%
- N-acetyl-L-glutamine remaining ([1]; pH 2.0, ambient temperature, 15 days): 97.0%
- N-acetyl-L-glutamine remaining ([1]; pH 3.0, ambient temperature, 4 months): 94.2%
- N-acetyl-L-glutamine remaining [1, 4]: 90.4%
- N-acetyl-glutamic acid and 2,6-dioxopiperidinylacetamide (approximately equal levels) [1, 4]: about 5%
- N-acetyl-glutamic acid and 2,6-dioxopiperidinylacetamide (approximately equal levels) ([1]; pH 3.0, ambient temperature, 15 days): about 0.15%
- N-acetyl-glutamic acid and 2,6-dioxopiperidinylacetamide (approximately equal levels) ([1]; pH 3.0, ambient temperature, 30 days): about 1%
- N-acetyl-L-glutamine remaining ([1]; pH 3.0, ambient temperature, through 90 days): > 95%
- N-acetyl-L-glutamine remaining ([1]; pH 4.0, ambient temperature, six months): 97.9%
- N-acetyl-L-glutamine remaining ([1]; pH 5.0 to 8.0, ambient temperature, 6 months): greater than 99.6%
- Dose excreted in the urine [2]: 20-40%
- Prevention of overt signs of inflammation in the epithelial lining of the gastrointestinal tract ([3]; electron transmission micrographs, malnourished pigs): more effective than glutamine
- Ileal mucosa histology (electron transmission microscopy) ([3]; 30 days): less affected by protein-energy malnutrition
- Jejunal mucosa histology (electron transmission microscopy) ([3]; 30 days): less affected by protein-energy malnutrition
- Glutathione transferase activity in small intestine ([3]; malnourished pigs, 30 days): less affected by the malnutrition process
- Number of CD1+ intra-epithelial lymphocytes in jejunum ([3]; malnourished pigs, 30 days): significantly higher than in the rest of the groups
- Prevention of biochemical and immunological changes induced by malnutrition in the small intestine ([3]; malnourished pigs, 30 days): performed better than the glutamine or caseinate supplemented groups; also recorded: positive effect
- Intestinal contents of protein (jejunum and ileum) and DNA (ileum) ([3]; malnourished pigs, 30 days, versus caseinate or glutamine supplement): tended to be higher
- Amount of GSH in the intestinal mucosa ([3]; malnourished pigs, 30 days, versus caseinate or glutamine, did not reach significance): tended to be slightly higher
- Alkaline phosphatase (AP) activity in jejunum ([3]; malnourished pigs, 30 days): tended to have higher AP activity
- Total number of peyer's patch lymphocytes in jejunum ([3]; malnourished pigs, versus caseinate- or glutamine-supplemented groups): tendency of the total number of peyer's patch lymphocytes to be higher
- T helper (CD4+) subpopulation of intra-epithelial lymphocytes in jejunum ([3]; malnourished pigs): significantly higher

- GLN (glutamine) in glutamine solution ([1]; ambient temperature, 2 days): 100.0 height percent
- PGA (pyroglutamic acid) in glutamine solution ([1]; ambient temperature, 2 days): none detected
- GLN (glutamine) in glutamine solution ([1]; ambient temperature, 3 days): 99.8 height percent
- PGA (pyroglutamic acid) in glutamine solution ([1]; ambient temperature, 3 days): 0.2 height percent
- GLN (glutamine) in glutamine solution ([1]; ambient temperature, 7 days): 99.5 height percent
- PGA (pyroglutamic acid) in glutamine solution ([1]; ambient temperature, 7 days): 0.5 height percent
- GLN (glutamine) in glutamine solution ([1]; ambient temperature, 15 days): 99.0 height percent
- PGA (pyroglutamic acid) in glutamine solution ([1]; ambient temperature, 15 days): 1.0 height percent
- GLN (glutamine) in glutamine solution ([1]; ambient temperature, 30 days): 98.1 height percent
- PGA (pyroglutamic acid) in glutamine solution ([1]; ambient temperature, 30 days): 1.9 height percent
- GLN (glutamine) in glutamine solution ([1]; ambient temperature, 45 days): 96.7 height percent
- PGA (pyroglutamic acid) in glutamine solution ([1]; ambient temperature, 45 days): 3.3 height percent
SMILES: NC(=O)CC[C@H](N)C(=O)O [Glutamine, glutamine]
- Ileal mucosa histology (electron transmission microscopy) ([3]; 30 days): displayed loss of microvilli, wide intercellular spaces, and intense lymphocytes infiltration
- Jejunal mucosa histology (electron transmission microscopy) ([3]; 30 days): displayed shortened microvilli, expanded intercellular spaces, and irregular lobulated nucleus
- Prevention of biochemical and immunological changes induced by malnutrition in the small intestine ([3]; malnourished pigs, 30 days): no clear effect
- Alkaline phosphatase (AP) activity in jejunum ([3]; malnourished pigs, 30 days): tended to have higher AP activity
- Total number of peyer's patch lymphocytes in ileum ([3]; malnourished pigs, versus N-acetyl-glutamine-supplemented or control groups): significantly lower
- T helper (CD4+) subpopulation of intra-epithelial lymphocytes in jejunum ([3]; malnourished pigs): significantly higher
